Measured values as given in US20060069079A1, “Stable amorphous cefdinir” (priority 2004, published 2006).

Key:
Format in all cases: physicochemical
[1] = Physical stability of the amorphous material isolated by evaporating a methanolic solution
Excerpt: Amorphous Cefdinir was isolated by evaporating a methanolic solution.
Stable amorphous Cefdinir with Eudragit EPO was made and isolated by evaporating a methanolic solution.
Amorphous cefdinir with PVP was made and isolated by evaporating a methanolic solution.

[2] = Thermogravimetric analysis (TGA), onset of degradation on heating; settings: heated at 10° C./min from 25° C.
Procedure: Thermogravimetric analysis (TGA) was performed in TA Instruments TG2950 (TA Instruments, New Castle, Del.). The samples were scanned at 10° C./minute with a dry nitrogen purge at 60 mL/minute.
For TGA analysis, the sample was heated at 10° C./min from 25° C. to 150° C. The air dried amorphous material contained about 5 wt % residual solvent. Since the TGA data also indicated degradation begins at 90° C., the residual solvent can be removed by holding the sample in the TGA for 1 hour at 25° C. (FIG. 5). At the end of the hour, the weight reached a constant value and the sample had lost 5% of its weight.
For the TGA analysis, the sample was heated at 10° C./min from 25° C. to 150° C. The air dried amorphous material contained some (˜10 wt %) residual methanol (FIG. 10). […] (FIG. 11). At the end of the hour, the weight reached a constant value and the sample had lost 10% of its weight.
For the TGA analysis, the sample was heated at 10° C./min from 25° C. to 200° C. The air dried amorphous material contained some (˜7 wt %) residual methanol. […] (FIG. 16). At the end of the hour, the weight reached a constant value and the sample had lost 7% of its weight.

[3] = HPLC potency of the isolated amorphous material, before and after drying
Procedure: For High Pressure Liquid Chromatography (HPLC), the sample isolated by evaporating methanol was analyzed by HPLC for potency. […] By careful drying at lower temperatures, the potency loss could be alleviated.
For the HPLC analysis, the sample isolated by evaporating methanol was analyzed by HPLC for potency. […] When the sample was re-analyzed after drying in the TGA at 25° C. or 70° C., the potency remained at 99 wt %. Therefore, the presence of Eudragit EPO improved the stability of the amorphous phase.

C=CC1=C(C(=O)O)N2C(=O)C(NC(=O)C(=NO)c3csc(N)n3)[C@H]2SC1 (single isomer, unassigned) [Amorphous Cefdinir, 7-[2-(2-aminothiazol-4-yl)-2-hydroxyiminoacetamide]-3-vinyl-3-cephem-4-carboxylic acid (syn isomer)]
physical stability [1]: physically stable | temperature at which degradation begins (TGA) [2]: 90 °C | potency by HPLC after drying ([3]; reanalyzed after drying in the TGA at 25° C. or 70° C.): 93% | potency by HPLC ([3]; sample isolated by evaporating methanol, after accounting for residual solvent): 98%
